Assay: Antagonist activity against human CXCR3 expressed in human PBMC assessed as inhibition of cell migration in response to ITAC in RPMI buffer

For `CCS(=O)(=O)CCN(C(=O)Cc1ccc(F)c(C(F)(F)F)c1)[C@H](C)c1nc2ncccc2c(=O)n1-c1ccc(OCC(F)(F)F)cc1` [(R)-N-(2-(ethylsulfonyl)ethyl)-2-(4-fluoro-3-(trifluoromethyl)phenyl)-N-(1-(4-oxo-3-(4-(2,2,2-trifluoroethoxy)phenyl)-3,4-dihydropyrido[2,3-d]pyrimidin-2-yl)ethyl)acetamide], the IC50 was 0.8 nM.

Assay: Antagonist activity against human CXCR3 expressed in human PBMC assessed as inhibition of cell migration in response to MIG in buffer

In the case of `CCS(=O)(=O)CCN(C(=O)Cc1ccc(F)c(C(F)(F)F)c1)[C@H](C)c1nc2ncccc2c(=O)n1-c1ccc(OCC(F)(F)F)cc1` [(R)-N-(2-(ethylsulfonyl)ethyl)-2-(4-fluoro-3-(trifluoromethyl)phenyl)-N-(1-(4-oxo-3-(4-(2,2,2-trifluoroethoxy)phenyl)-3,4-dihydropyrido[2,3-d]pyrimidin-2-yl)ethyl)acetamide], the IC50 is reported as 0.6 nM.

Assay: Antagonist activity against human CXCR3 expressed in human PBMC assessed as inhibition of cell migration in response to IP10 in buffer

With `CCS(=O)(=O)CCN(C(=O)Cc1ccc(F)c(C(F)(F)F)c1)[C@H](C)c1nc2ncccc2c(=O)n1-c1ccc(OCC(F)(F)F)cc1` [(R)-N-(2-(ethylsulfonyl)ethyl)-2-(4-fluoro-3-(trifluoromethyl)phenyl)-N-(1-(4-oxo-3-(4-(2,2,2-trifluoroethoxy)phenyl)-3,4-dihydropyrido[2,3-d]pyrimidin-2-yl)ethyl)acetamide] the IC50 was 0.4 nM.

Assay: Antagonist activity against human CXCR3 expressed in human PBMC assessed as inhibition of cell migration in response to ITAC in plasma

Going from `CCOc1ccc(-n2c([C@@H](C)N(Cc3cccnc3)C(=O)Cc3cc(C(F)(F)F)cc(C(F)(F)F)c3)nc3ccccc3c2=O)cc1` [(R)-2-(3,5-bis(trifluoromethyl)phenyl)-N-(1-(3-(4-ethoxyphenyl)-4-oxo-3,4-dihydroquinazolin-2-yl)ethyl)-N-(pyridin-3-ylmethyl)acetamide] to `CCOc1ccc(-n2c([C@@H](C)N(Cc3cccnc3)C(=O)Cn3cnc(C(F)(F)F)c3)nc3ccccc3c2=O)cc1` [(R)-N-(1-(3-(4-ethoxyphenyl)-4-oxo-3,4-dihydroquinazolin-2-yl)ethyl)-N-(pyridin-3-ylmethyl)-2-(4-(trifluoromethyl)-1H-imidazol-1-yl)acetamide], the IC50 rises from 17 nM to 450 nM (26-fold).

First: CCOc1ccc(-n2c([C@@H](C)N(Cc3ccc[n+]([O-])c3)C(=O)Cc3ccc(OC(F)(F)F)cc3)nc3ncccc3c2=O)cc1 [(R)-3-((N-(1-(3-(4-ethoxyphenyl)-4-oxo-3,4-dihydropyrido[2,3-d]pyrimidin-2-yl)ethyl)-2-(4-(trifluoromethoxy)phenyl)acetamido)methyl)pyridine 1-oxide]
Second: CCOc1ccc(-n2c([C@@H](C)N(Cc3cccnc3)C(=O)Cc3ccc(F)c(C(F)(F)F)c3)nc3ncccc3c2=O)cc1 [(R)-N-(1-(3-(4-ethoxyphenyl)-4-oxo-3,4-dihydropyrido[2,3-d]pyrimidin-2-yl)ethyl)-2-(4-fluoro-3-(trifluoromethyl)phenyl)-N-(pyridin-3-ylmethyl)acetamide]
The IC50 of the first is 2.9-fold higher: 58 nM for the first, 20 nM for the second.

First: CCOc1ccc(-n2c([C@@H](C)N(C(=O)Cc3ccc(F)c(C(F)(F)F)c3)C3CCN(C(C)C)CC3)nc3ncccc3c2=O)cc1 [(R)-N-(1-(3-(4-ethoxyphenyl)-4-oxo-3,4-dihydropyrido[2,3-d]pyrimidin-2-yl)ethyl)-2-(4-fluoro-3-(trifluoromethyl)phenyl)-N-(1-isopropylpiperidin-4-yl)acetamide]
Second: CCOc1ccc(-n2c([C@@H](C)N(C(=O)Cc3ccc(F)c(C(F)(F)F)c3)C3CCN(C(C)=O)CC3)nc3ncccc3c2=O)cc1 [(R)-N-(1-acetylpiperidin-4-yl)-N-(1-(3-(4-ethoxyphenyl)-4-oxo-3,4-dihydropyrido[2,3-d]pyrimidin-2-yl)ethyl)-2-(4-fluoro-3-(trifluoromethyl)phenyl)acetamide]
The IC50 of the first is 26-fold lower: 5 nM for the first, 131 nM for the second. The first is the more potent here.

Going from `CCOc1ccc(-n2c([C@@H](C)N(CC3CCN(C)CC3)C(=O)Cc3ccc(F)c(C(F)(F)F)c3)nc3ncccc3c2=O)cc1` [(R)-N-(1-(3-(4-ethoxyphenyl)-4-oxo-3,4-dihydropyrido[2,3-d]pyrimidin-2-yl)ethyl)-2-(4-fluoro-3-(trifluoromethyl)phenyl)-N-((1-methylpiperidin-4-yl)methyl)acetamide] to `CCOc1ccc(-n2c([C@@H](C)N(C[C@H]3CCCN3C(C)C)C(=O)Cc3ccc(F)c(C(F)(F)F)c3)nc3ncccc3c2=O)cc1` [N-((R)-1-(3-(4-ethoxyphenyl)-4-oxo-3,4-dihydropyrido[2,3-d]pyrimidin-2-yl)ethyl)-2-(4-fluoro-3-(trifluoromethyl)phenyl)-N-(((R)-1-isopropylpyrrolidin-2-yl)methyl)acetamide], the IC50 falls from 20 nM to 10 nM (2-fold).

Compared with `CCOc1ccc(-n2c([C@@H](C)N(Cc3cc(C)no3)C(=O)Cc3ccc(F)c(C(F)(F)F)c3)nc3ncccc3c2=O)cc1` [(R)-N-(1-(3-(4-ethoxyphenyl)-4-oxo-3,4-dihydropyrido[2,3-d]pyrimidin-2-yl)ethyl)-2-(4-fluoro-3-(trifluoromethyl)phenyl)-N-((3-methylisoxazol-5-yl)methyl)acetamide], `CCOc1ccc(-n2c([C@@H](C)N(CCS(=O)(=O)CC)C(=O)Cc3ccc(F)c(C(F)(F)F)c3)nc3ncccc3c2=O)cc1` [(R)-N-(1-(3-(4-ethoxyphenyl)-4-oxo-3,4-dihydropyrido[2,3-d]pyrimidin-2-yl)ethyl)-N-(2-(ethylsulfonyl)ethyl)-2-(4-fluoro-3-(trifluoromethyl)phenyl)acetamide] is 2.7-fold lower in IC50: 59 nM for the first, 22 nM for the second.

Compared with `CCOc1ccc(-n2c([C@@H](C)N(C(=O)Cc3ccc(F)c(C(F)(F)F)c3)C3CCOCC3)nc3ncccc3c2=O)cc1` [(R)-N-(1-(3-(4-ethoxyphenyl)-4-oxo-3,4-dihydropyrido[2,3-d]pyrimidin-2-yl)ethyl)-2-(4-fluoro-3-(trifluoromethyl)phenyl)-N-(tetrahydro-2H-pyran-4-yl)acetamide], `CCOc1ccc(-n2c([C@@H](C)N(C[C@H]3CCCN3)C(=O)Cc3ccc(F)c(C(F)(F)F)c3)nc3ncccc3c2=O)cc1` [N-((R)-1-(3-(4-ethoxyphenyl)-4-oxo-3,4-dihydropyrido[2,3-d]pyrimidin-2-yl)ethyl)-2-(4-fluoro-3-(trifluoromethyl)phenyl)-N-((R)-pyrrolidin-2-ylmethyl)acetamide] is 8.1-fold lower in IC50: 162 nM for the first, 20 nM for the second.

First: CCOc1ccc(-n2c([C@@H](C)N(Cc3cccnc3)C(=O)Cc3ccc(F)c(C(F)(F)F)c3)nc3cnccc3c2=O)cc1 [(R)-N-(1-(3-(4-ethoxyphenyl)-4-oxo-3,4-dihydropyrido[3,4-d]pyrimidin-2-yl)ethyl)-2-(4-fluoro-3-(trifluoromethyl)phenyl)-N-(pyridin-3-ylmethyl)acetamide]
Second: CCOc1ccc(-n2c([C@@H](C)N(C[C@@H]3CCCN3C(C)C)C(=O)Cc3ccc(F)c(C(F)(F)F)c3)nc3ncccc3c2=O)cc1 [N-((R)-1-(3-(4-ethoxyphenyl)-4-oxo-3,4-dihydropyrido[2,3-d]pyrimidin-2-yl)ethyl)-2-(4-fluoro-3-(trifluoromethyl)phenyl)-N-(((S)-1-isopropylpyrrolidin-2-yl)methyl)acetamide]
The IC50 of the first is 3.5-fold lower: 23 nM for the first, 80 nM for the second.

Work on `CCS(=O)(=O)CCN(C(=O)Cc1ccc(F)c(C(F)(F)F)c1)[C@H](C)c1nc2ncccc2c(=O)n1-c1ccc(OCC(F)(F)F)cc1` [(R)-N-(2-(ethylsulfonyl)ethyl)-2-(4-fluoro-3-(trifluoromethyl)phenyl)-N-(1-(4-oxo-3-(4-(2,2,2-trifluoroethoxy)phenyl)-3,4-dihydropyrido[2,3-d]pyrimidin-2-yl)ethyl)acetamide] yielded an IC50 of 15 nM.

From BindingDB's records for doi:10.1016/j.bmcl.2009.07.032 (Amgen, 2009)
